For the data set, the system named is rodent lifetime carcinogenesis bioassay, tumor incidence TD50. The data set can be described thus: chronic cancer bioassays in animals – CPDB, compiled studies (AID 1745844).

The structures appear in SMILES notation. Where “and” joins values, the source holds several entries; their conditions need not be identical. Equal entries are not always repeated. Calls of active or inactive are those of the source. No rule for the calls is given here.

With `CC(=O)OCC(=O)[C@@]12N=C(C)O[C@@H]1C[C@H]1[C@@H]3CCC4=CC(=O)C=C[C@]4(C)[C@H]3[C@@H](O)C[C@@]12C`, the TD50 (rat, strain Charles River CD (Sprague-Dawley), females, in feed, site: head, lesion: osteosarcoma, dosed 104 weeks, study length 104 weeks) came to 66.8 mg/kg/day. The carcinogen call is, setting by setting: (rat, strain Charles River CD (Sprague-Dawley), males, in feed, site: bone, lesion: several types, types named in the paper, dosed 104 weeks, study length 104 weeks) “positive”; (rat, strain Charles River CD (Sprague-Dawley), males, in feed, site: head, lesion: osteosarcoma, dosed 104 weeks, study length 104 weeks) “positive”.
Consider `O=c1c(O)c(-c2ccc(O)c(O)c2)oc2cc(O)cc(O)c12`, for which the carcinogen call reads like this: (hamster, strain Syrian Golden, females, in feed, site: forestomach, lesion: papilloma, dosed 50 weeks, study length 100 weeks) “negative (inactive)”; (hamster, strain Syrian Golden, females, in feed, site: forestomach, lesion: papilloma, dosed 104 weeks, study length 104 weeks) “negative (inactive)”; (hamster, strain Syrian Golden, males, in feed, site: adrenal gland, lesion: cortical adenoma, dosed 101 weeks, study length 101 weeks) “negative (inactive)”; (hamster, strain Syrian Golden, males, in feed, site: adrenal gland, lesion: cortical adenoma, dosed 104 weeks, study length 104 weeks) “negative (inactive)”; (hamster, strain Syrian Golden, males, in feed, site: forestomach, lesion: papilloma, dosed 101 weeks, study length 101 weeks) “negative (inactive)”; (mouse, strain DDY, females, in feed, site: liver, lesion: one or several types, types not named, dosed 120 weeks, study length 120 weeks) “negative (inactive)”. Besides, the carcinogen call was “negative (inactive)” (rat, strain ACI, females, in feed, site: adrenal gland, lesion: cortical adenoma, dosed 77 weeks, study length 77 weeks); “negative (inactive)” (rat, strain ACI, females, in feed, site: pituitary gland, lesion: adenoma, dosed 77 weeks, study length 77 weeks); “negative (inactive)” (rat, strain F344/DuCrj, females, in feed, site: liver, lesion: hyperplastic nodule, dosed 104 weeks, study length 112 weeks); “negative (inactive)” (rat, strain Fischer 344, females, in feed, site: any site (literature study), lesion: several types, types named in the paper, dosed 64 weeks, study length 64 weeks); “negative (inactive)” (rat, strain Fischer 344, males, in feed, site: any site (literature study), lesion: several types, types named in the paper, dosed 64 weeks, study length 64 weeks); “negative (inactive)” (rat, strain Fischer 344, males, in feed, site: any site (literature study), lesion: several types, types named in the paper, dosed 77 weeks, study length 77 weeks). The carcinogen call (rat, strain Norwegian albino, males, in feed, site: ileum, lesion: several types, types named in the paper, dosed 58 weeks, study length 58 weeks) is “positive”. The TD50 was 18900 mg/kg/day (inactive) (hamster, strain Syrian Golden, females, in feed, site: forestomach, lesion: papilloma, dosed 101 weeks, study length 101 weeks); 140000 mg/kg/day (inactive) (hamster, strain Syrian Golden, females, in feed, site: ileum, lesion: adenocarcinoma, dosed 104 weeks, study length 104 weeks); 39200 mg/kg/day (inactive) (hamster, strain Syrian Golden, females, in feed, site: uterus, lesion: leiomyoma, dosed 101 weeks, study length 101 weeks); 1440 mg/kg/day (inactive) (hamster, strain Syrian Golden, males, in feed, site: forestomach, lesion: papilloma, dosed 50 weeks, study length 100 weeks); 56700 mg/kg/day (inactive) (hamster, strain Syrian Golden, males, in feed, site: forestomach, lesion: papilloma, dosed 104 weeks, study length 104 weeks); 4240 mg/kg/day (inactive) (mouse, strain DDY, females, in feed, site: lung, lesion: several types, types named in the paper, dosed 120 weeks, study length 120 weeks). Further, the TD50 was 73400 mg/kg/day (inactive) (mouse, strain DDY, males, in feed, site: heart, lesion: spindle-cell sarcoma, dosed 115 weeks, study length 115 weeks); 15100 mg/kg/day (inactive) (mouse, strain DDY, males, in feed, site: liver, lesion: several types, types named in the paper, dosed 115 weeks, study length 115 weeks); 5460 mg/kg/day (inactive) (mouse, strain DDY, males, in feed, site: lung, lesion: several types, types named in the paper, dosed 115 weeks, study length 115 weeks); 226000 mg/kg/day (inactive) (rat, strain ACI, females, in feed, site: adrenal gland, lesion: cortical adenoma, dosed 121 weeks, study length 121 weeks); 461000 mg/kg/day (inactive) (rat, strain ACI, females, in feed, site: pituitary gland, lesion: adenoma, dosed 121 weeks, study length 121 weeks); 90400 mg/kg/day (inactive) (rat, strain ACI, females, in feed, site: thigh, lesion: sarcoma, dosed 121 weeks, study length 121 weeks). Moreover, the TD50 runs as follows: (rat, strain ACI, males, in feed, site: adrenal gland, lesion: pheochromocytoma, dosed 77 weeks, study length 77 weeks) 7130 mg/kg/day (inactive); (rat, strain ACI, males, in feed, site: cecum, lesion: adenocarcinoma, dosed 121 weeks, study length 121 weeks) 35200 mg/kg/day (inactive); (rat, strain ACI, males, in feed, site: cecum, lesion: adenoma, dosed 77 weeks, study length 77 weeks) 7130 mg/kg/day (inactive); (rat, strain ACI, males, in feed, site: cecum, lesion: adenoma, dosed 121 weeks, study length 121 weeks) 72300 mg/kg/day (inactive); (rat, strain ACI, males, in feed, site: pancreas, lesion: exocrine adenoma, dosed 121 weeks, study length 121 weeks) 72300 mg/kg/day (inactive); (rat, strain ACI, males, in feed, site: testis, lesion: interstitial-cell tumor, dosed 77 weeks, study length 77 weeks) 2290 mg/kg/day (inactive). Also, the TD50 is 7860 mg/kg/day (inactive) (rat, strain F344/DuCrj, females, in feed, site: all sites, lesion: lymphoma and leukemia, combined, dosed 104 weeks, study length 112 weeks); 19300 mg/kg/day (inactive) (rat, strain F344/DuCrj, females, in feed, site: uterus, lesion: endometrial stromal polyp, dosed 104 weeks, study length 112 weeks); 1160 mg/kg/day (inactive) (rat, strain F344/DuCrj, males, in feed, site: all sites, lesion: lymphoma and leukemia, combined, dosed 104 weeks, study length 112 weeks); 66800 mg/kg/day (inactive) (rat, strain F344/DuCrj, males, in feed, site: liver, lesion: hyperplastic nodule, dosed 104 weeks, study length 112 weeks); 118 mg/kg/day (inactive) (rat, strain Fischer 344, females, in feed, site: adrenal gland, lesion: cortical adenoma, dosed 77 weeks, study length 77 weeks); 75700 mg/kg/day (rat, strain Fischer 344, females, in feed, site: liver, lesion: hepatocellular adenoma + hepatocellular carcinoma + neoplastic nodule, dosed 103 weeks, study length 103 weeks). For the same molecule, the TD50 (rat, strain Fischer 344, females, in feed, site: tongue, lesion: squamous-cell carcinoma, dosed 103 weeks, study length 103 weeks) was 36500 mg/kg/day (inactive); the TD50 (rat, strain Fischer 344, males, in feed, site: kidney, lesion: tubule adenoma + tubular-cell adenocarcinoma, dosed 103 weeks, study length 103 weeks) was 8990 mg/kg/day and 5250 mg/kg/day; the TD50 (rat, strain Fischer 344, males, in feed, site: kidney, lesion: tubule adenoma, dosed 103 weeks, study length 103 weeks) was 12500 mg/kg/day and 6030 mg/kg/day; the TD50 (rat, strain Norwegian albino, females, in feed, site: ileum, lesion: adenocarcinoma, dosed 58 weeks, study length 58 weeks) was 15.4 mg/kg/day; the TD50 (rat, strain Norwegian albino, females, in feed, site: ileum, lesion: several types, types named in the paper, dosed 58 weeks, study length 58 weeks) is 5.12 mg/kg/day; the TD50 (rat, strain Norwegian albino, females, in feed, site: urinary bladder, lesion: several types, types named in the paper, dosed 58 weeks, study length 58 weeks) was 51.3 mg/kg/day. The TD50 (rat, strain Norwegian albino, males, in feed, site: urinary bladder, lesion: transitional-cell carcinoma, dosed 58 weeks, study length 58 weeks) was 21 mg/kg/day.
Regarding `NC(=O)NN=Cc1ccc([N+](=O)[O-])o1`, the TD50 by setting is: (mouse, strain B6C3F1, females, in feed, site: any site (literature study), lesion: several types, types named in the paper, dosed 103 weeks, study length 104 weeks) 66.2 mg/kg/day; (mouse, strain B6C3F1, females, in feed, site: lung, lesion: alveolar/bronchiolar adenoma + alveolar/bronchiolar carcinoma, dosed 103 weeks, study length 104 weeks) 241 mg/kg/day; (mouse, strain B6C3F1, females, in feed, site: ovary, lesion: granulosa-cell tumor + mixed tumor, benign, dosed 103 weeks, study length 104 weeks) 22.4 mg/kg/day; (mouse, strain B6C3F1, females, in feed, site: ovary, lesion: granulosa-cell tumor, dosed 103 weeks, study length 104 weeks) 124 mg/kg/day; (mouse, strain B6C3F1, females, in feed, site: ovary, lesion: mixed tumor, benign + tubular adenoma, dosed 103 weeks, study length 104 weeks) 29.8 mg/kg/day; (mouse, strain B6C3F1, females, in feed, site: ovary, lesion: mixed tumor, benign, dosed 103 weeks, study length 104 weeks) 30.8 mg/kg/day. Further, the TD50 (mouse, strain B6C3F1, males, in feed, site: any site (literature study), lesion: several types, types named in the paper, dosed 103 weeks, study length 104 weeks) is 89.3 mg/kg/day; the TD50 (mouse, strain B6C3F1, males, in feed, site: liver, lesion: hepatocellular adenoma + hepatocellular carcinoma + neoplastic nodule, dosed 103 weeks, study length 104 weeks) was 152 mg/kg/day; the TD50 (mouse, strain B6C3F1, males, in feed, site: lung, lesion: alveolar/bronchiolar adenoma + alveolar/bronchiolar carcinoma, dosed 103 weeks, study length 104 weeks) came out at 1380 mg/kg/day; the TD50 (mouse, strain B6C3F1, males, in feed, site: subcutaneous tissue, lesion: fibrosarcoma + fibroma + neurofibrosarcoma + sarcoma, NOS, dosed 103 weeks, study length 104 weeks) is 154 mg/kg/day (inactive); the TD50 (rat, strain Fischer 344, females, in feed, site: liver, lesion: hepatocellular adenoma + hepatocellular carcinoma + neoplastic nodule, dosed 103 weeks, study length 104 weeks) came to 253 mg/kg/day; the TD50 (rat, strain Fischer 344, females, in feed, site: mammary gland, lesion: fibroadenoma, dosed 103 weeks, study length 104 weeks) was 15.7 mg/kg/day. The TD50 (rat, strain Fischer 344, males, in feed, site: any site (literature study), lesion: several types, types named in the paper, dosed 103 weeks, study length 104 weeks) turned out to be 33.8 mg/kg/day; the TD50 (rat, strain Fischer 344, males, in feed, site: preputial gland, lesion: carcinoma, NOS, dosed 103 weeks, study length 104 weeks) amounted to 65.5 mg/kg/day; the TD50 (rat, strain Fischer 344, males, in feed, site: skin, lesion: sebaceous adenoma + trichoepithelioma, dosed 103 weeks, study length 104 weeks) was 151 mg/kg/day; the TD50 (rat, strain Fischer 344, males, in feed, site: skin, lesion: sebaceous adenoma, dosed 103 weeks, study length 104 weeks) was found to be 177 mg/kg/day; the TD50 (rat, strain Fischer 344, males, in feed, site: tunica vaginalis, lesion: mesothelioma, NOS + mesothelioma, malignant, dosed 103 weeks, study length 104 weeks) is 44 mg/kg/day; the TD50 (rat, strain Holtzman albino (Sprague-Dawley derived), females, in feed, site: mammary gland, lesion: fibroadenoma, dosed 36 weeks, study length 54 weeks) is 6.52 mg/kg/day. The TD50 (rat, strain Sprague-Dawley, females, in feed, site: mammary tissue, wider than the gland, lesion: one or several types, types not named, dosed 46 weeks, study length 66 weeks) was 7.12 mg/kg/day. Moreover, the carcinogen call (rat, strain Holtzman albino (Sprague-Dawley derived), females, in feed, site: mammary tissue, wider than the gland, lesion: one or several types, types not named, dosed 44 weeks, study length 60 weeks) is “positive”.
Turning to `CN(N=O)C(=O)c1ccccc1C(=O)N(C)N=O`, the carcinogen call (rat, strain Wistar, males, by gavage, site: any site (literature study), lesion: several types, types named in the paper, dosed 67 weeks, study length 67 weeks) was “negative (inactive)”.

In general, TD50 refers to the 50% point of the dose-response relation for the toxic effect studied.
